Data: patent publication US20260240999A1, “METHODS FOR EX VIVO ENRICHMENT AND EXPANSION OF TUMOR REACTIVE T CELLS AND RELATED COMPOSITIONS THEREOF” (H. LEE MOFFITT CANCER CENTER AND RESEARCH INSTITUTE, INC., priority 2022, published 2026)
“Also recorded” adds a separate entry of the source. Residues, ends and D or L forms follow the SMILES beside them. *: point of attachment. Cbz = O=C(OCc1ccccc1)*; CH2F = FC*

Columns and labels:
[1] = system: PBMC from three healthy donors; experiment: T cell expansion with Fas ligand or caspase inhibition, anti-CD3 stimulation; type: cell-based, human; conditions: OKT3 activation
Protocol: (§1) Cells were then seeded into a 24-well gas permeable cell culture plate at a density of 2.14×10^5 cells/mL (7.5×10^5 cells/cm^2). Cells were activated for 48 hours using 50 ng/ml OKT3, a human anti-CD3 monoclonal antibody, and were additionally treated with agents as described below.
Culture wells were assigned to one of five treatment groups, as follows: (1) a no inhibitor culture control which contained only cellular media as described with no additional apoptotic modulator; (2) 2 μM of the pan-caspase inhibitor Z-VAD-FMK added to the media only on culture day 0 (transient); (3) 2 μM of the pan-caspase inhibitor Z-VAD-FMK added on culture day 0 and additionally replenished at the same concentration with each media exchange (continuous); (4). 500 ng/ml of Fas ligand (FasL) blocking antibody NOK-1 (BioLegend) added to the culture media only on day 0 (transient); or (5) 500 ng/ml of Fas ligand (FasL) blocking antibody NOK-1 (BioLegend) added to the culture media […] replenished each media exchange (continuous inhibition).
Cultures were maintained for at least 13 days with a 50% media exchange every other day beginning on culture day 2. Cell counts and viability were monitored every other day. […]

[2] = system: CRC tumor fragment and SCS cultures; experiment: Caspase inhibition in tumor processing; type: cell-based, human
Protocol: Half of cultures contained media additionally supplemented with 2 μM of pan-caspase inhibitor Z-VAD-FMK which was replenished at each media exchange. Cultures were incubated at about 37° C. for a minimum of 18 days with a 50% medium exchange occurring every 2-3 days following culture day 5. Cell counts were performed on day 5 and at each medium exchange using the NC-200 Automated Cell Counter (ChemoMetec).

[3] = system: PBMC from two healthy donors; experiment: T cell expansion with Fas ligand or caspase inhibition, anti-CD3/anti-CD28 stimulation; type: cell-based, human; conditions: continuous anti-CD3/anti-CD28 activation
Protocol: Cells were then seeded into a 24-well gas permeable cell culture plate at a density of 1.5×10^5 cells/mL (5.0×10^5 cells/cm^2).
Culture wells were assigned to one of two treatment groups, transient or continuous activation. For transient activation, anti-CD3/anti-CD28 paramagnetic beads (Dyanbeads™) were added to the culture media at a ratio of 1 bead per cell starting on culture day 0, and then were removed during media exchange on day 2. For continuous activation, anti-CD3/anti-CD28 paramagnetic beads (Dyanbeads™) were added to the culture media at a ratio of 1 bead per cell starting on culture day 0, and then added again on Day 4, and again on Day 6 at a ratio of 1 bead per cell. The anti-CD3/anti-CD28 paramagnetic beads were not removed on Day 2, 4 or 6.
For both the continuous and transient activation, culture wells were assigned to one of five treatment groups as described above for 10 conditions total per donor.
Cell counts and viability were monitored every other day. When cells reached 3×10^6 cells/ml, 1.5×10^6 cells were sub-cultured into a new well of a 24-well gas permeable culture plate with 7 mL final volume of medium and the culture continued as described above.

[4] = system: previously expanded human T cells from three healthy donors; experiment: Cytokines, modulators and agonist antibodies with IL-2 on T cell number and memory phenotype; type: cell-based
Protocol: PBMC from three healthy donors were activated, expanded, and cryopreserved as described in Example 11. […] As previously described, stimulation of the healthy donor T cells prior to cryopreservation were carried out with anti-CD3 (OKT3) stimulation in order to mimic conditions present in the tumor microenvironment (TME).
Cells were next seeded into gas permeable 100M culture vessels and expanded for 7-14 days to achieve a large bank of T cells, and cryopreserved.
Cells were maintained in culture for 6 days, with a 50% medium exchange occurring at 3 days post culture initiation.
At the end of the culture period for all culture conditions, cells were assessed for cell count and sub-phenotypes of naïve and central memory T cells by flow cytometry by staining with CD45RA and CCR7 (naïve, CD45RA+ CCR7+; “central” memory, CD45RA-CCR7+).

[5] = system: previously expanded human T cells from three healthy donors; experiment: Effect of T cell adjuvants on T cell viability (total viable CD3+ cell count); type: cell-based; conditions: for viable cell counts: vs DMSO treatment control, irrespective of activation status, 6 days
Protocol: Cells were expanded from PBMC derived from Ficoll gradient separation from three healthy donor's apheresis material. […] Because the studies were carried out in healthy donors, stimulation of the T cells was carried out with anti-CD3 (OKT3) stimulation in order to mimic conditions present in the tumor microenvironment (TME).
Cells were next seeded into gas permeable 100M culture vessels and expanded for 7-14 days to achieve a large bank of T cells, and cryopreserved. […] Half of wells were additionally supplemented with 50 ng/mL OKT3, a human anti-CD3 monoclonal antibody. In total, 15 test adjuvant agents were tested for their impact on cell viability in the presence and absence of anti-CD3 activation (see Table E3). Cells were cultured for 6 days total, including a 50% medium exchange on culture day 3, and monitored for total viable CD3+ cell count.

[6] = system: PBMC from two healthy donors; experiment: Checkpoint modulators and costimulatory agonist antibodies on T cell phenotype; type: cell-based, human
Protocol: as §1, with “5.0×10^5 cells/cm^2.” for “2.14×10^5 cells/mL (7.5×10^5 cells/cm^2).”, “below. Following 48 hours in culture, cells were analyzed for phenotype.” for “below.”
Cells were divided into 6 treatment groups, as follows: Ipilimumab (anti-CTLA4), Pembrolizumab (anti-PD1), Tavolixizumab (anti-TNFRSF4), Urelumab (anti-CD137), and Varlilumab (anti-CD27), as well as a no added agent control. For all test groups, cells in each treatment group were cultured in the presence of the monoclonal antibodies at 0.5, 1, 10, or 20 μg/mL.
None of the tested antibodies appeared to affect the memory differentiation state of the T cells. T cell phenotype was assessed for CD4+ and CD8+ cells independently via flow cytometry for markers of activation OX40, 41BB, CD107a, and PD1. Results are shown in FIG. 38 (CD3+), FIG. 39 (CD4+) and FIG. 40 (CD8+).

[7] = system: cells processed from melanoma tumor fragments; experiment: Anti-CD3 stimulation on expansion of tumor-derived cells; type: cell-based, human; conditions: presence or absence of 50 ng/mL OKT3; 14-31 days
Protocol: Cells processed from melanoma tumor fragments as described in Examples 1 and 2, were cultured in the presence or absence of 50 ng/mL OKT3, a human anti-CD3 monoclonal antibody. Cell cultures were carried out to between 14 and 31 days, such as between 14 and 21 days, in either a conventional 6-well plate or a gas permeable culture plate with RPMI or OpTmizer media. […] About 50% of cellular media was exchanged every other day beginning on the 5th day of culture as described previously. Cells were then counted using the NC-200 Automated Cell Counter (Chemometec).

[8] = system: T-cells from three healthy donors; experiment: Post-stimulation CD4+ and CD8+ activation markers by flow cytometry; type: cell-based, human; conditions: 50 ng/ml OKT3 vs no OKT3, 48 hours, CD38, CD39, CD134, CD137, CD69, CD90
Protocol: Specific markers of activation on the CD4+ and CD8+ cell populations were measured using flow cytometry over a time course of 3-48 hours. Specifically, the following markers were assessed: CD38 and CD39 (FIG. 12A and FIG. 13A), CD134 and CD137 (FIG. 12B and FIG. 13B), and CD69 and CD90 (FIG. 12C and FIG. 13C).

[9] = cytokine plus 300 IU/mL IL-2 vs IL-2 alone
[10] = on CD3+, CD4+ and CD8+ T cells, higher concentrations

COC(=O)C[C@H](NC(=O)[C@H](C)NC(=O)[C@@H](NC(=O)OCc1ccccc1)C(C)C)C(=O)CF [Z-VAD-FMK, carbobenzoxy-valyl-alanyl-aspartyl-[O-methyl]-fluoromethylketone] (Cbz-Val-Ala-Asp(OMe)-CH2F)
cell growth (total cell number) ([1]; continuous inhibition (replenished each media exchange)): showed the greatest cell growth across donors
cell growth (total cell number) ([1]; transient treatment (day 0 only)): grew similarly
cell viability ([2]; SCS culture, 2 μM): Cell viability was similarly high
outgrowth of T cells ([2]; SCS culture, 2 μM): outgrowth of T cells was not observed for the SCS conditions
cell viability ([2]; tumor fragment-derived culture, 2 μM): cell viability for this condition was also high
outgrowth of cells (fold expansion, total viable cells) ([2]; tumor fragment-derived culture, 2 μM replenished at each media exchange): outgrowth of cells was superior in the tumor fragment-derived condition containing the pan-caspase inhibitor
total viable cell number and viability ([3]; inhibitor continuous, listed as caspase inhibitor): outperformed the other conditions; also recorded: outperforming the transient condition
total viable cell number and viability ([3]; inhibitor transient): outperformed the other conditions
number of CD3+ cells/mL on Day 6 ([4]; concentrations higher than 0.2 μg/mL, vs IL-2 alone): substantially increased the number of CD3+ cells/mL on Day 6
percent of naïve and central memory T cells ([4]; vs cultures expanded just with IL-2): had no effect on the percent of naïve and central memory T cells
viable cell counts [5]: consistently higher viable cell counts than the DMSO treatment control

IL-15: recombinant cytokine
percent naïve and central memory T cells at Day 6 ([4]; cytokine plus 300 IU/mL IL-2): measured increase in the percent naïve and central memory T cells
CD3+ cells/mL on Day 6 [4, 9]: increase in CD3+ cells/mL on Day 6
dose response of cell number ([5]; 62.5 IU/ml-1000 IU/ml): dose dependent response, wherein cell number increased with increasing concentration

Oxelumab: anti-OX40L antibody
percent naïve and central memory T cells at Day 6 ([4]; antibody plus IL-2 vs IL-2 alone, MK-1248 at highest concentration tested): little effect on the percent of naïve and central memory T cells
CD3+ cells/mL on Day 6 ([4]; highest concentration tested, 50 μg/mL, vs IL-2 alone): increase in CD3+ cells/mL on Day 6
viable cell counts [5]: consistently higher viable cell counts than the DMSO treatment control

Pembrolizumab: anti-PD1 antibody
PD1 expression ([6]; on CD4 T cells): decreased PD1 expression
viable cell counts [5]: consistently higher viable cell counts than the DMSO treatment control

Varlilumab: an agonist anti-CD27 antibody
41BB expression [6, 10]: promoted 41BB and CD107a expression
CD107a expression [6, 10]: promoted 41BB and CD107a expression

OKT3: a human anti-CD3 monoclonal antibody
total cell number and fold expansion [7]: supported T cell expansion, but did not substantially impact total cell number; also recorded: observed to be largely similar
upregulation of activation markers on CD8+ T cells ([8]; highest for CD38, CD134, CD69): all assessed markers were upregulated to some extent
upregulation of activation markers on CD4+ T cells ([8]; highest for CD38, CD137, CD69): all assessed markers were upregulated to some extent

IL-21: recombinant cytokine
percent naïve and central memory T cells at Day 6 ([4]; cytokine plus 300 IU/mL IL-2): measured increase in the percent naïve and central memory T cells
CD3+ cells/mL on Day 6 [4, 9]: increase in CD3+ cells/mL on Day 6

Urelumab: an agonist CD137 receptor antibody
41BB expression ([6]; on CD4 T cells and CD8+ T cells): promoted 41BB expression
